Laboratory results as given in US9718835B2 (China Medical University Hospital, priority 2013, dated 2017).
Like-named read-outs stand apart in the source and are kept apart here.

Key:
[1] = tested on: MDA-MB-231 (triple-negative breast cancer); experiment: Sulforhodamine B cytotoxicity assay, MDA-MB-231; format: cell-based; settings: Homo sapiens, Table 4, read-out: IC50 (Average ± SD) MDA-MB-231
Text: (§1) The human tumor cell lines used in this manuscript were A-549 (lung carcinoma), MDA-MB-231 (triple-negative breast cancer), DU-145 (hormone-insensitive prostate cancer), KB (originally isolated from epidermoid carcinoma of the nasopharynx), KBvin (vincristine-resistant KB subline), and HCT116 (colorectal adenocarcinoma). These cell lines were obtained from the Lineberger Comprehensive Cancer Center (UNC-CH) or from ATCC (Manassas, Va.), except KBvin, which was a generous gift of Professor Y.-C. Cheng (Yale University). All cell lines were maintained and assayed in RPMI-1640 medium containing 2 mM L-glutamine and 25 mM HEPES (HyClone), supplemented with 10% heat-inactivated fetal bovine serum (HyClone), 100 μg/mL streptomycin, 100 IU/mL penicillin, and 0.25 μg/mL amphotericin B (Cellgro) in a humidified atmosphere containing 5% CO2 in air. […] The 4-6×10^3 cells/well were cultured for 72 h with various concentrations of test compounds in 96-well plate at 37° C. […] Each assay was performed in triplicate with duplicated samples.

[2] = tested on: KBvin (vincristine-resistant KB subline); experiment: Sulforhodamine B cytotoxicity assay, KBvin; format: cell-based, human; settings: Homo sapiens, KBVIN
Text: as §1

[3] = tested on: KB (epidermoid carcinoma of the nasopharynx); experiment: Sulforhodamine B cytotoxicity assay, KB; format: cell-based, human; settings: Homo sapiens
Method: (§2) The 12 novel 1-derivatives 9a-l were evaluated for in vitro antiproliferative activity against four human tumor cell lines, KB (nasopharyngeal), A-549 (lung), DU-145 (prostate), and KBvin (MDR KB subline), by using a sulforhodamine B colorimetric assay with triplicate experiments.^30 Compounds 1 and 3 were used as controls.
(§3) The human tumor cell lines used in this manuscript were A-549 (lung carcinoma), MDA-MB-231 (triple-negative breast cancer), DU-145 (hormone-insensitive prostate cancer), KB (originally isolated from epidermoid carcinoma of the nasopharynx), KBvin (vincristine-resistant KB subline), and HCT116 (colorectal adenocarcinoma). These cell lines were obtained from the Lineberger Comprehensive Cancer Center (UNC-CH) or from ATCC (Manassas, Va.), except KBvin, which was a generous gift of Professor Y.-C. Cheng (Yale University). All cell lines were maintained and assayed in RPMI-1640 medium containing 2 mM L-glutamine and 25 mM HEPES (HyClone), supplemented with 10% heat-inactivated fetal bovine serum (HyClone), 100 μg/mL streptomycin, 100 IU/mL penicillin, and 0.25 μg/mL amphotericin B (Cellgro) in a humidified atmosphere containing 5% CO2 in air. Compound stock solutions were prepared at 10 mM in DMSO and diluted with culture medium with the final DMSO concentration ≦0.01% (v/v), a concentration without effect on cell growth. The 4-6×10^3 cells/well were cultured for 72 h with various concentrations of test compounds in 96-well plate at 37° C. […] Each assay was performed in triplicate with duplicated samples.

A-549 (lung carcinoma) = experiment: Sulforhodamine B cytotoxicity assay, A-549; format: cell-based, human; settings: Homo sapiens, A549; Table 1; 72 h; average ± SD
Text: as §1

[4] = i.p.; cited from earlier work
[5] = tested on: human colorectal adenocarcinoma HCT116 xenograft; experiment: Xenograft model antitumor assay; format: in vivo, nu/nu mice
Method: Xenograft model antitumor assay using human colorectal adenocarcinoma cell line HCT116 was performed according to the regimen in Table 2. The 31-day study utilized four groups of mice (n=8) bearing established HCT116 xenograft with mean volumes of approximately 200 mm^3 on day one. The tumor growth and animal body weight change for each treatment group were measured three times per week (FIGS. 2 and 3). Compound 9a was administered intravenously (i.v.) for 7 days and then intraperitoneally (i.p.) at 5 and 10 mg/kg once every day (QD) to the end.
Five- to six-week-old female nu/nu mice (National Laboratory Animal Center, Taiwan) were inoculated subcutaneously with 2×10^6 human colorectal adenocarcinoma HCT116 cells in flank. When the grafted tumor volume reached the average volume of 200 mm^3, mice were randomly divided into four groups (n=8). Vehicle control and compound 9a at 5 or 10 mg/kg were administered i.v. once a day (QD) for 7 days and then i.p. once a day to the end. As an experimental control group, 100 mg/kg of compound 3 was administered i.v. once a week (QWK) to the end. The length (L) and width (W) of graft was measured every 3 to 4 days to the end, and the tumor volume was calculated as LW^2/2. Results were evaluated statistically by Student's t-test. This study was approved by the Institutional Animal Care and Use Committee (IACUC) of the National Taiwan University (Taipei, Taiwan), and was performed according to the institutional guidelines.

[6] = biological target: T1, recombinant human Topoisomerase I (Homo sapiens, UniProt P11387); experiment: Topoisomerase I activity assay in a cell-free system; format: biochemical; settings: purified recombinant human Topo I
T1 construct: purchased TopoGEN
T1 sequence (P11387 1-765): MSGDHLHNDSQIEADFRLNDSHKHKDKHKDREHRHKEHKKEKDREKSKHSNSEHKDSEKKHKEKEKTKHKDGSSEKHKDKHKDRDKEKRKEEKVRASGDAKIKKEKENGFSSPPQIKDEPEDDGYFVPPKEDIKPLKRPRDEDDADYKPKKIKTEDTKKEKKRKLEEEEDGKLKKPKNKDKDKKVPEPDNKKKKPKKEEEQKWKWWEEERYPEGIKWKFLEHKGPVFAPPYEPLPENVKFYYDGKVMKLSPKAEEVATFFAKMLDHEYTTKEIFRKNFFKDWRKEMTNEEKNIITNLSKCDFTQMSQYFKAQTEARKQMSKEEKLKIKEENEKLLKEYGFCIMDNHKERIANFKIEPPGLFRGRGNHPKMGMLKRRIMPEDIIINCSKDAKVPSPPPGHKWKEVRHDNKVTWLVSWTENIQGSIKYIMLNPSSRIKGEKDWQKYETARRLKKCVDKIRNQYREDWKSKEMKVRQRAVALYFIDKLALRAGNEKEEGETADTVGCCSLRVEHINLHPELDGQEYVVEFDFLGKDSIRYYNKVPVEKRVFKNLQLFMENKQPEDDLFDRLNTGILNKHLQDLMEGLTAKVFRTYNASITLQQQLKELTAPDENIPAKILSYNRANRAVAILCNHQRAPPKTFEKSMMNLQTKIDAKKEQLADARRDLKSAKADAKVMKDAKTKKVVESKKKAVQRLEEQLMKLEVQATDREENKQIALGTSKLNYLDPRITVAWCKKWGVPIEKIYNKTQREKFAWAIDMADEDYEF
Method: Inhibition of Topo I activity by 9a in a cell-free system. A 1-delivative with an esterified 20-hydroxy group is expected to be activated by digestion with carboxylesterases. […] We authenticated the inhibitory effect of 9a against Topo I in a dose-dependent manner Thus, we confirmed that 9a is a new class of Topo I inhibitor.
One unit of recombinant human Topoisomerase I enzyme (TopoGEN) was pre-incubated for 20 min at 37° C. with vehicle, 9a, 1, 3, or SN-38 in a final volume of 20 μL reaction buffer (10 mM Tris-HCl, pH 7.9, 1 mM EDTA, 150 mM NaCl, 0.1% BSA, 0.1 mM spermidine, 5% glycerol) was then incubated with 250 ng of supercoiled plasmid DNA for 20 min. The supercoiled, relaxed, or nicked DNA was separated by 1% agarose gel in 1×TAE (Tris-Acetate-EDTA) buffer. Ethidium bromide stained agarose gel was photographed using Gel Doc XR (Bio-Rad).

[7] = tested on: DU-145 (hormone-insensitive prostate cancer); experiment: Sulforhodamine B cytotoxicity assay, DU-145; format: cell-based, human; settings: Homo sapiens, DU-145; Table 1; 72 h; average ± SD
Method: as §2, §3

Topo I = biological target: T2, Topo I (Homo sapiens, UniProt P11387); experiment: Topo I activity assay, nuclear extracts of treated A-549 cells, supercoiled DNA; format: cell-based; set-up: Nuclear extracts from 9a-treated A-549 cells were incubated with supercoiled DNA (for Topo I); endogenous in cells; host or cells: A-549
T2 sequence (P11387 1-765): T1 sequence (P11387 1-765)
Method: (§4) First, we determined the effect of 9a on cell cycle distribution using flow cytometry analysis. […] Because it has been shown that 1-Topo I-DNA covalent complexes enhance the transcription-dependent degradation of Topo I via a 26S proteasome pathway,^32 the effects of 9a on the expression levels of Topo I and Topo II were investigated.
(§5) Topo I activity test was performed using an assay kit (TopoGEN) according to the manufacturer's instructions. Nuclear extracts from 9a-treated A-549 cells were incubated with supercoiled DNA (for Topo I) or catenated kDNA (for Topo II) for 30 min at 37° C. Reaction mixture was separated by is 1% agarose gel in 1×TAE buffer. The gel was stained with ethidium bromide and photographed using Gel Doc XR (Bio-Rad).

Topo II = Topo II activity assay, nuclear extracts of treated A-549 cells, catenated kDNA; format: cell-based, human
Text: as §4, with “investigated. […] Compound 9a acts directly on Topo I and results in the accumulation of covalent Topo I-DNA complexes followed by proteasomal Topo I degradation, which is the same effect as 1 and contributes to 9a's cytotoxicity.” for “investigated.”
as §5

For `CC[C@@]1(O)C(=O)OCc2c1cc1n(c2=O)Cc2cc3c(CN(C)C)c(O)ccc3nc2-1` [Compound 2, topotecan, reference compound], the IC50 [1] was 100 ± 5.5 nM, the IC50 ([2]; Table 4, read-out: IC50 (Average ± SD) KBvin) was 400 ± 21 nM and the IC50 ([3]; Table 4, read-out: IC50 (Average ± SD) KB) was 0.063 ± 0.0042 µM.

In the case of `CCc1c2c(nc3ccc(OC(=O)N4CCC(N5CCCCC5)CC4)cc13)-c1cc3c(c(=O)n1C2)COC(=O)[C@]3(O)CC` [Compound 3, irinotecan, reference compound], the IC50 (A-549 (lung carcinoma)) is given as 9.5 ± 0.11 µM, the LD50 [4] is given as 177.5 mg/kg and the IC50 ([2]; Table 1, 72 h, average ± SD, read-out: IC50 KBvin) is given as > 20000 nM. The “mice showing complete regression” value ([5]; 100 mg/kg QWK i.v., n=8) was “three mice”, the “antitumor activity in vivo (tumor growth)” value ([5]; 100 mg/kg QWK, P<0.001) was “exhibited antitumor activity” and the “Inhibition of Topo I activity (relaxation/nicking of supercoiled plasmid DNA)” value [6] was “no inhibitory effect on Topo I activity”. For the same molecule, the IC50 ([3]; Table 1, 72 h, average ± SD, read-out: IC50 KB) was 9.8 ± 0.48 µM and the IC50 [7] was 9.3 ± 0.61 µM.

For `CC[C@@]1(O)C(=O)OCc2c1cc1n(c2=O)Cc2cc3ccccc3nc2-1` [Compound 1, Camptothecin, reference compound], the “Topo I-mediated relaxation of supercoiled DNA” value (Topo I) is given as “inhibited the relaxation of supercoiled DNA”, the LD50 [4] is given as 56.2 mg/kg and the “Inhibition of Topo I activity (relaxation/nicking of supercoiled plasmid DNA)” value [6] is given as “inhibited Topo I activity”. For the same molecule, the “Topo II decatenation of kDNA” value (Topo II) was “failed to decatenate kineoplast DNA” and the IC50 [7] was 0.029 ± 0.0025 µM.

With `COc1cc([C@@H]2c3cc4c(cc3[C@@H](O[C@@H]3O[C@@H]5CO[C@@H](C)O[C@H]5[C@H](O)[C@H]3O)[C@H]3COC(=O)[C@H]23)OCO4)cc(OC)c1O` [etoposide] the “Topo II decatenation of kDNA” value (Topo II) was “effectively blocked the decatenation of kDNA”.
